These are literature values, as cited in US20150246043A1, “ORAL DOSAGE FORMS FOR MODIFIED RELEASE COMPRISING RUXOLITINIB” (ratiopharm GmbH, priority 2012, published 2015).

For data set [1] the following is noted: class I = high permeability, high solubility.
The conditions of data set [2]: reported for Ruxolitinib and especially its pharmaceutically acceptable salts like the phosphate salt (WO 2008/157208).

With `N#CC[C@H](C1CCCC1)n1cc(-c2ncnc3[nH]ccc23)cn1` [Ruxolitinib, (3R)-3-cyclopentyl-3-[4-(7H-pyrrolo[2,3-d]pyrimidin-4-yl)pyrazol-1-yl]propanenitrile], the “Biopharmaceutics Classification System class” value in data set [1] is on record as “class I”. Also, the aqueous solubility entry in data set [2] is “very high”.
